Test results from US11167014B2, “Solid glp-1 derivative compositions for oral administration” (Novo Nordisk A/S, priority 2017, dated 2021).
Where “and” joins values, the source holds several entries; their conditions need not be identical. Identical values can stand only once.

Legend:
NCI-N87 cell monolayers = test: Assay (I): epithelial cell monolayer permeability (transepithelial transport, Papp) and TEER, NCI-N87
Method: N87 cells were seeded onto tissue culture treated polyester filters in 12-well Corning Transwell plates (1.13 cm^2, 0.4 μm pore size) at a density of 10^5 cells/well.
(§1) Cell monolayers were grown in an atmosphere of 5% CO2-95% O2 at 37° C., replacing growth media every other day. The experiment was performed on day 14-16 after cell seeding.
The amount of test compound transported from the donor chamber (apical side) to the receiver chamber (basolateral side) was measured as described in [1] for Caco-2 monolayers and in [2] for NCl-N87 cell monolayers, in an atmosphere of 5% CO2-95% O2 at 37° C. on a shaking plate (30 rpm). Before the experiment, cell monolayers were equilibrated for 60 min with transport buffer on both sides of the epithelium. The transport buffer consisted of Hank's balanced saline solution containing 0.1% Ovalbumin (w/v), 0.005% Tween20 (w/w) and 10 mM HEPES, adjusted to pH 7.4. The transport of [^3H]mannitol (PerkinElmer), was measured to verify the integrity of the epithelium.
(§2) Translocation of a given compound across cell layers is expressed as the apparent permeability (Papp), given by:
(§3) [formula] where dQ/dt is the steady-state flux across the cell layer (pmol/s), A is the surface area (1.12 cm^2), and C0 is the initial sample concentration.
Before and after the experiment the transepithelial electrical resistance (TEER) of the cell monolayers was monitored. After experiments, cells were washed twice with buffer and replenished with medium for 24 h TEER recovery to ensure that the cell monolayers were viable and the enhancer effects were transient. The TEER was measured with EVOM™ Epithelial Voltohmmeter connected to Chopsticks.

Caco-2 cell monolayers = test: Assay (I): epithelial cell monolayer permeability (transepithelial transport, Papp) and TEER, Caco-2
Method: Caco-2 cells were seeded in culturing flasks and passaged in Dulbecco's Modified Eagle' (DMEM) medium supplemented with 10% fetal bovine serum, 1% penicillin/streptomycin (100 U/ml and 100 μg/ml, respectively), 1% L-glutamine and 1% nonessential amino acids. Caco-2 cells were seeded onto tissue culture treated polycarbonate filters in 12-well Corning Transwell plates (1.13 cm^2, 0.4 μm pore size) at a density of 10^5 cells/well.
as §1
Before the experiment, cell monolayers were equilibrated for 60 min with transport buffer on both sides of the epithelium. The transport buffer consisted of Hank's balanced saline solution containing 0.1% Ovalbumin (w/v), 0.005% Tween20 (w/w) and 10 mM HEPES, adjusted to pH 7.4. The transport of [^3H]mannitol (PerkinElmer), was measured to verify the integrity of the epithelium.
as §2, §3
Before and after the experiment the transepithelial electrical resistance (TEER) of the cell monolayers was monitored. After experiments, cells were washed twice with buffer and replenished with medium for 24 h TEER recovery to ensure that the cell monolayers were viable and the enhancer effects were transient. The TEER was measured with EVOM™ Epithelial Voltohmmeter connected to Chopsticks. For Caco-2 monolayers the starting TEER was typically around 1000 Ω·cm^2 and for N87 monolayers it was around 1600 Ω·cm^2.

[1] = NCI-N87, experiment of Table 3 (semaglutide)
[2] = NCI-N87, experiment of Table 4 (FD4)
[3] = Caco-2, experiment of Table 1 (semaglutide)
[4] = Caco-2, experiment of Table 2 (Compound B)
[5] = Caco-2, experiment of Table 5 (FD4)
[6] = Caco-2, experiments of Tables 9-10 (semaglutide, FD4)

| dapagliflozin concentration for which non-recovering TEER was observed (NCI-N87 cell monolayers; NCI-N87, 24 h in fresh medium) [mM] | effect alone on Compound B permeability (Caco-2 cell monolayers; 0.5-2.0 mM dapagliflozin, Caco-2 cell monolayers) | dapagliflozin concentration for which non-recovering TEER was observed (Caco-2 cell monolayers; Caco-2, 24 h in fresh medium) | SMILES | transient decrease in cell monolayer TEER down to % of starting values (NCI-N87 cell monolayers; [1]) | transient decrease in cell monolayer TEER down to % of starting values (NCI-N87 cell monolayers; [2]) | transient decrease in cell monolayer TEER down to % of starting values (Caco-2 cell monolayers; [3]) | transient decrease in cell monolayer TEER down to % of starting values (Caco-2 cell monolayers; [4]) | transient decrease in cell monolayer TEER down to % of starting values (Caco-2 cell monolayers; [5]) | transient decrease in cell monolayer TEER down to % of starting values (Caco-2 cell monolayers; [6]) |
| --- | --- | --- | --- | --- | --- | --- | --- | --- | --- |
| – | – | – | O=C(O)CCCCCCCNC(=O)c1ccccc1O [SNAC, sodium N-(8-(2-hydroxybenzoyl)amino)caprylate] | ~20 % of starting values | ~25 % of starting values | ~25 % of starting values | ~25 % of starting values | ~35 % of starting values | ~35 % of starting values |
| > 2.6 | negligible effect | > 2.7 mM and 3 mM | CCOc1ccc(Cc2cc([C@@H]3O[C@H](CO)[C@@H](O)[C@H](O)[C@H]3O)ccc2Cl)cc1 [dapagliflozin] | ~20 % of starting values | ~25 % of starting values | ~25 % of starting values | ~25 % of starting values | ~35 % of starting values | – |
| – | – | – | OC[C@H]1O[C@@H](c2ccc(Cl)c(Cc3ccc(O[C@H]4CCOC4)cc3)c2)[C@H](O)[C@@H](O)[C@@H]1O [empagliflozin] | – | – | – | – | – | ~35 % of starting values |
